Article PMC8646019, “Azvudine is a thymus-homing anti-SARS-CoV-2 drug effective in treating COVID-19 patients” (Signal Transduction and Targeted Therapy, 2021)
Values joined by “and” are separate entries in the source; they are usually repeats but may differ in a detail not shown here. Equal entries are not always repeated. “Also recorded” adds a separate entry of the source.

How the values were obtained:
[1] = Biodistribution and metabolism of FNC in rats (UHPLC-MS/MS); conditions: male, Sprague-Dawley, in vivo, rat, FNC 5 mg/kg oral, average n=5, read-out: Concentration in kidney
Procedure: Fig. 2 Thymus-homing distribution and metabolism of FNC after oral administration in rats. Twenty-five male Sprague–Dawley rats were orally administered with FNC at a single dose of 5 mg/kg. At the time point of 1, 2, 6, 12, and 24 h after drug administration, 5 rats were dissected. The blood, as well as the heart, liver, spleen, lung, kidney, brain, thymus, testis, and epididymis, were collected. Peripheral blood mononuclear cells (PBMCs) were isolated from blood using Histopaque-1083. The distribution of FNC in plasma, PBMCs, and the different tissues was evaluated through UHPLC–MS/MS analysis performed on an UHPLC system (1290 series, Agilent Technologies, USA) coupled to a triple quadrupole mass spectrometer (Agilent 6470 QQQ). a Metabolic pathway of FNC. b FNC distribution in tissues and plasma (5 mg/kg, oral). c FNC-TP levels in the blood (5 mg/kg, oral). d FNC-TP levels in tissues (5 mg/kg, oral). e FNC and its phosphate metabolites (FNC-MP, FNC-DP, and FNC-TP) in the thymus (5 mg/kg). f FNC and its phosphate metabolites in PBMCs (5 mg/kg).
25 male Sprague-Dawley rats (200 ± 15 g) were purchased from Vital River Laboratories Co., LTD (Beijng, China). The animals were housed under specific pathogen-free conditions (12 h light/12 h dark photoperiod, 25 ± 2°C, 50±5% relative humidity). All rats were allowed to acclimate for 1 week before experiments. Research was conducted in accordance with all institutional guidelines and ethics and approved by the Laboratories Institutional Animal Care and Use Committee of the Chinese Academy of Medical Sciences and Peking Union Medical College.
Rats were divided randomly into five groups with five rats in each, and were administered with azvudine at a single dose of 5 mg/kg. At the time point of 1h, 2h, 6h, 12h and 24h after drug administration, rats in one group were dissected with euthanization and blood samples were collected using heparin as an anticoagulant. 0.5 ml of blood was transferred to another 1.5ml eppendorf tube to obtain plasma by centrifugation (3500 r/min ×15 min). The tissues, including heart, liver, spleen, lung, kidney, brain, thymus, testis, and epididymis, were collected, and washed with cold 0.9% normal saline, and then kept at -80°C until analysis.
Peripheral blood mononuclear cells (PBMCs) were isolated from blood using Histopaque-1083 according to the manufacturer’s protocol. Firstly, 2 mL of blood collected in heparin sodium tube was diluted with 2 mL of PBS solution. Then, 4mL of diluted blood was layered on top of 4 mL Histopaque-1083 and centrifuged for 30 min at 2000 r/min. PBMCs were then aspirated, washed twice with PBS solution, suspended in PBS, and counted with a hemocytometer. Furtherly, PBMCs were centrifuged (2000 r/min ×10 min), lysed with 1ml of cold 80% methanol for 12h, then ultrasonic for cell disruption (3min). Finally, the cell lysates were stored in -80°C until sample preparation.
Tissue samples were weighed and 2-fold volume of 0.9% saline containing phosphatase inhibitor was added to prepare the homogenate on the ice. Then tissue homogenate was ultrasonic extracted for 5 min in the ice bath. 200μL of plasma or tissue homogenate was transferred into a 1.5 ml eppendorf tube and added 600 μL of methanol solution with internal standards. The sample was vortexed for 5 min and kept at 4°C for 15min, then centrifuged at 13000r/min for 10 min (4°C). […]

SARS-CoV-2 = experiment: Clinical trial of FNC on compassionate use in COVID-19 patients
PBMC = type: in vivo, rhesus macaques; conditions: n = 4 for each group, with time, vs untreated
thymus cells = type: in vivo, rhesus macaques
[2] = drug combination no: FNC only, N = 15
[3] = drug combination no: FNC only, N = 15, mean ± SD
[4] = drug combination yes: FNC plus TCM or/and other antivirals, N = 16, mean ± SD
[5] = individual COVID-19 patient (one per table line)
[6] = moderate COVID-19, n = 26, mean ± SD
[7] = severe COVID-19, n = 5, mean ± SD
[8] = FNC-treated monkey #17368, scRNA-seq

## [N-]=[N+]=N[C@]1(CO)O[C@@H](n2ccc(N)nc2=O)[C@@H](F)[C@@H]1O [FNC, 2′-deoxy-2′-β-fluoro-4′-azidocytidine]
[1]; 1 h
  concentration at 1 h: 515 ng/g
[1]; 2 h
  concentration at 2 h: 798 ng/g
[1]; 6 h
  concentration at 6 h: 269 ng/g
[1]; 12 h
  concentration at 12 h: 76.5 ng/g
[1]; 24 h
  concentration at 24 h: 78.1 ng/g
SARS-CoV-2; all 31 COVID-19 patients
  Recovery rate: 100% (31/31)
  Time from FNC treatment to SARS-CoV-2 negative conversion, median: 3.0 days
  Time from FNC treatment to SARS-CoV-2 negative conversion, range: 1 to 9 days
  Time from FNC treatment to discharge from the hospital, average: 9.00 ± 4.93 days and 9.00 days
  Time from FNC treatment to discharge from the hospital, median: 9.0 days
  Time from FNC treatment to discharge from the hospital, range: 2 to 25 days
  deaths in the trial: No patients died
  hospital discharge rate: 100%
  viral ribonucleic acid negative conversion, share of patients: 100%
SARS-CoV-2; all 31 COVID-19 patients, oral FNC 5 mg qd
  Time from FNC treatment to SARS-CoV-2 negative conversion, average: 3.29 ± 2.22 days and 3.29 days
SARS-CoV-2; [2]
  Recovery rate: 100% (16/16)
  Side effect: 13.3% (2/15)
SARS-CoV-2; [3]
  Time from FNC treatment to SARS-CoV-2 negative conversion: 2.13 ± 1.30 days
  Time from FNC treatment to discharge from the hospital: 8.67 ± 6.24 days
SARS-CoV-2; drug combination yes, N = 16
  Recovery rate: 100% (16/16)
  Side effect: 18.8% (3/16)
SARS-CoV-2; [4]
  Time from FNC treatment to SARS-CoV-2 negative conversion: 4.38 ± 2.39 days
  Time from FNC treatment to discharge from the hospital: 9.31 ± 3.46 days
SARS-CoV-2; [5]
  Side effect: Dizziness (fist day); also recorded: Low counts of Platelet and Fibrinogen (first day); also recorded: Dizziness, Nausea, Vomit (first day); also recorded: Dizziness, Insomnia, Vomit (first day)
  Time from FNC treatment to discharge from the hospital: 6 days and 7 days and 5 days
SARS-CoV-2; individual COVID-19 patient (one per table line; dosage and combination treatment as in the line)
  Time from FNC treatment to SARS-CoV-2 negative conversion: 6 days
SARS-CoV-2; moderate COVID-19, n = 26
  Recovery rate: 100% (26/26)
SARS-CoV-2; [6]
  Time from FNC treatment to SARS-CoV-2 negative conversion: 3.35 ± 2.13 days
  Time from FNC treatment to discharge from the hospital: 9.65 ± 4.91 days
SARS-CoV-2; self-controlled comparison, 11 patients
  Recovery rate: 100% (11/11)
SARS-CoV-2; self-controlled comparison, 11 patients first treated with known antivirals, then FNC alone, mean ± SD
  Time from drug treatment to SARS-CoV-2 negative conversion: 1.73 ± 0.79 days
SARS-CoV-2; self-controlled comparison, 11 patients, mean ± SD
  Time from FNC treatment to discharge from the hospital: 9.09 ± 7.27 days
SARS-CoV-2; severe COVID-19, n = 5
  Recovery rate: 100% (5/5)
  Side effect: 40% (2/5)
SARS-CoV-2; [7]
  Time from FNC treatment to SARS-CoV-2 negative conversion: 3.00 ± 2.92 days
  Time from FNC treatment to discharge from the hospital: 5.60 ± 3.78 days
PBMC
  percentage of CD3+, CD4+, and CD8+ cells in the peripheral blood: increased
Thymus cells; [8]
  Proportion of B cells in thymus: 4.1%
  Proportion of CD4 cells in thymus: 17.5%
  Proportion of CD8 cells in thymus: 22.8%
  Proportion of NKT cells in thymus: 4.6%
Thymus cells; FNC-treated monkey #17368 vs untreated #17041
  expression of IL-4, IL-13, and IL-10 in the thymus cells: elevated
